How the values were obtained:
[1] = system: patients having acute myeloid leukemia; assay: Cytarabine therapy of patients having acute myeloid leukemia, complete remission determined from number of leukocytes; assay type: in vivo, human; settings: of 139 patients with acute myeloid leukemia, cytarabine administered according to NCCN guidelines
Procedure: Cytarabine sensitivity of 139 patients who had acute myeloid leukemia and were treated in Samsung Medical Center was identified. That is, cytarabine was administered to the patients according to NCCN guidelines, and the number of leukocytes was subsequently measured in each patient to determine complete remission to determine whether the cytarabine therapy was effective for the patient. The patients were then classified into one group of 121 patients having cytarabine sensitivity (responders) and the other group of 18 patients not having cytarabine sensitivity (nonresponders). In addition, blood of the patients was obtained to extract DNA by using QIAamp DNA Mini and blood Mini kits in order to determine SNPs associated with cytarabine sensitivity of the patients.

[2] = system: patients having acute myeloid leukemia; settings: stated as known; cited from earlier work

## Nc1ccn([C@@H]2O[C@H](CO)[C@@H](O)[C@@H]2O)c(=O)n1 [cytarabine, cytosine arabinoside]
[1]
  patients having cytarabine sensitivity (responders): 121 patients
  patients not having cytarabine sensitivity (nonresponders): 18 patients
[2]
  patients having acute myeloid leukemia on whom administration of cytarabine is not effective: about 20%
